This is an account of results in patent publication EP0390515A1, “Novel adenine derivatives and their use as agents for increasing crop yields” (MITSUBISHI GAS CHEMICAL COMPANY, INC., priority 1989, dated 1990).

This test relates to leaf of wheat. Nature of the test: Absorption from the surface of the leaf of wheat and translocation (length of green portion). Format: cell-based, wheat [var.: Yukichabo (Triticum astivum)]. To be noted: for The length of the green portion (mm) (average in 10 leaves): 10 µl in 0.2% Tween 80 on centre of wheat leaf section, 25°C, 5 days, dark. As for the experimental part:
In the same manner as in the above Example 8 test (1), wheat seedlings were grown to a height of 12 - 13 cm and a portion was cut off from tle region 4 cm from the tip of the first true leaf and this leaf section was used for this test.
The bottom of a Petri dish 9 cm in diameter was covered with a sheet of circular filter paper which was wetted with 2.5 ml of distilled water. A slide glass was put thereon and ten of the leaf sections were arranged on this slide glass with the upper surface of the leaf being uppermost. On the center of the leaf sections was put 10 µl of the solution prepared by dissolving the candidate compound or benzyladenine in a 0.2% aqueous solution of Tween 80 at a given concentration. The Petri dish was covered and left at 25°C for 5 days in the dark. In the part where the candidate solution was absorbed and translocated around the position on which the solution was put, the length of the portion where chlorophyll was retained, namely, the length of the green portion was measured. […]

With `CON(C)CCNc1ncnc2nc[nH]c12` [MAED, N⁶-[2-(N-methoxy-N-methylamino)ethyl]adenine], the “The length of the green portion (mm) (average in 10 leaves)” value came out at 9.9 mm (0.1 mg/l), 19.8 mm (1.0 mg/l) and 28.8 mm (10 mg/l). Moreover, for the setting “at the same concentration, result in words”, the “green portion compared with benzyladenine (absorbability and translocation)” value is “expanded the green portion in more widely than benzyladenine”.
Turning to `c1ccc(CNc2ncnc3nc[nH]c23)cc1` [Benzyladenine, 6-benzylaminopurine, reference compound], the “The length of the green portion (mm) (average in 10 leaves)” value is on record as 9.6 mm (0.1 mg/l), 14.2 mm (1.0 mg/l) and 16.9 mm (10 mg/l).
